Data reported in US20220356169A1, “TETRAZINES FOR HIGH CLICK RELEASE SPEED AND YIELD” (priority 2019, published 2022).
Marks after values point to notes of the source that are not given here.

What was measured:
[1] = test system: ADC AVP0458-TCO-MMAE; assay: Triggered drug (MMAE) release from ADC in 50% mouse plasma, HPLC-SIM-MS; conditions: 24 h; 50% mouse plasma, 37° C.; mean ± SD (n = 3)
Description: In a 1.5 mL vial, the following was combined: 650 μL mouse plasma, 600 μL PBS, 20 μL ADC (1.62 μg/μL in PBS) and 7.5 μL d8-MMAE solution (0.167 μg/μL, internal standard). Next, aliquots of 20 μL were prepared to which 5.2 μL of a tetrazine solution (0.25 mM in 1:1 DMSO/H2O) was added and the solution was incubated at 37° C. At various times, 100 μL of cold MeCN was added to the aliquot and the mixture was vortexed, stored at 4° C. for 30 min. and centrifuged. 20 μL of supernatant was taken and combined with 100 μL of 1% formic acid (aq) solution. This sample was analysed with HPLC-SIM-MS to quantify the ratio of free MMAE and d8-MMAE, which is a measure of the release yield.

[2] = Triggered release of Construct-A from TCO trigger, HPLC-MS/PDA
Description: At the specified time point, the sample was analyzed by HPLC-MS/PDA, and the release yield was determined from the observed amounts of IEDDA adducts, elimination product, and/or released Construct. In case the release was not complete, the sample was incubated at 37° C. for additional time and analyzed once again.

Row | SMILES | MMAE release from ADC AVP0458-TCO-MMAE, Release (%) [1] | Construct release % ([2]; TCO 3.11, doxorubicin, 18 h, 37° C.) | Construct release % ([2]; TCO 3.11, doxorubicin, 42 h, 37° C.) | Construct release % ([2]; TCO 3.11, released construct doxorubicin, 5 min) | Construct release % ([2]; TCO 3.23, released construct dimethylamine, 5 min) | Construct release % ([2]; TCO 3.32, released construct dimethylamine, 5 min)
1 | Nc1cccnc1-c1nnc(-c2ncccc2N)nn1 [2.1, 2,2′-(1,2,4,5-Tetrazine-3,6-diyl)bis(pyridin-3-amine)] | 32.1 ± 0.7^b % |  |  |  |  | 
2 | CC(=O)Nc1cccnc1-c1nnc(-c2ncccc2NC(C)=O)nn1 [2.2, N,N′-(2,2′-(1,2,4,5-Tetrazine-3,6-diyl)bis(pyridine-3,2-diyl))diacetamide] | 79.3 ± 0.4% | 18 h: 74% | 42 h: 81% | 5 min: 4% | 5 min: 100% | 5 min: 98%
3 | Nc1cnccc1-c1nnc(-c2ccncc2N)nn1 [2.3, 4,4′-(1,2,4,5-Tetrazine-3,6-diyl)bis(pyridin-3-amine)] | 88.5 ± 0.1% |  |  |  |  | 
4 | CC(=O)Nc1cnccc1-c1nnc(-c2ccncc2NC(C)=O)nn1 [2.4, N,N′-(4,4′-(1,2,4,5-Tetrazine-3,6-diyl)bis(pyridine-4,3-diyl))diacetamide] | 96.0 ± 0.3% |  |  |  |  | 
